Experiment: recombinant barcode read abundance after kanamycin selection (control-corrected) (log10(CPM+1)); higher = more efficient recombination; sequences stand for … in AGTGCAGAGAAAATCGGCCAGTTTTCTCTGCCTGCAGTCCGCATGCCGT…ATTTATGCAGCGGACTGCCTTTCTCCCAAAGTGATAAACCGGACAGTATCATGGACCGGTTTTCCCGGTAATCCGTATTTGCAAGGTTGGTTTCACT; site = the 11-nt target
Experimental: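 Same pooled E. coli target screen (IS621 bridge recombinase, kanamycin selection, control-corrected CPM, mean of 2 biological replicates). Here the two core-binding nucleotides of the LTG and RTG of the bridge RNA target-binding loop are mutated. Target and donor CT cores are held constant, and the other 9 guide positions match the target. The target is read from the library oligo sequence. Molecule = full bridge RNA written as DNA: nt 1-80 from the library oligo, rest WT scaffold.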

| Sequence | recombinant barcode read abundance (log10) |
| --- | --- |
| CGCGCCCCTTGGGTTCTAACCTGTTGCGGTA [CGCGCCCCTCC_LTGcore_CT_RTGcore_TA] (site CGCGCCCCTCC) (LTG core: CT, RTG core: TA) | 0.602 |
| TCGCGACCCTGGGTTCTAACCTGTTGCCGAG [TCGCGACCTCG_LTGcore_CC_RTGcore_CT] (site TCGCGACCTCG) (LTG core: CC, RTG core: CT) | 0.466 |
| AGGCGGGCCTGGGTTCTAACCTGTTGCGGGG [AGGCGGGCTCC_LTGcore_CC_RTGcore_CC] (site AGGCGGGCTCC) (LTG core: CC, RTG core: CC) | 0.126 |
| TGATACCAATGGGTTCTAACCTGTTGCGTTT [TGATACCCTAC_LTGcore_AA_RTGcore_AA] (site TGATACCCTAC) (LTG core: AA, RTG core: AA) | 0.0446 |
| AGGCGGGACTGGGTTCTAACCTGTTGCGGGT [AGGCGGGCTCC_LTGcore_AC_RTGcore_AC] (site AGGCGGGCTCC) (LTG core: AC, RTG core: AC) | 0.011 |
| AGGCGGTCTTGGGTTCTAACCTGTTGCTTCC [AGGCGGTCTAA_LTGcore_CT_RTGcore_GG] (site AGGCGGTCTAA) (LTG core: CT, RTG core: GG) | 0.0963 |
| GAGTCCACTTGGGTTCTAACCTGTTGCGTGT [GAGTCCACTAC_LTGcore_CT_RTGcore_AC] (site GAGTCCACTAC) (LTG core: CT, RTG core: AC) | 0.0606 |
| AGGAGGTCTTGGGTTCTAACCTGTTGCCTTT [AGGAGGTCTAG_LTGcore_CT_RTGcore_AA] (site AGGAGGTCTAG) (LTG core: CT, RTG core: AA) | 1.32 |
| GAGCCCAGCTGGGTTCTAACCTGTTGCCTGC [GAGCCCACTAG_LTGcore_GC_RTGcore_GC] (site GAGCCCACTAG) (LTG core: GC, RTG core: GC) | 0.0674 |
| TCTACCCGTTGGGTTCTAACCTGTTGCTGAC [TCTACCCCTCA_LTGcore_GT_RTGcore_GT] (site TCTACCCCTCA) (LTG core: GT, RTG core: GT) | 0.0436 |
| TGTATTCGTTGGGTTCTAACCTGTTGCCTAG [TGTATTCCTAG_LTGcore_GT_RTGcore_CT] (site TGTATTCCTAG) (LTG core: GT, RTG core: CT) | 0.0893 |
| GGACACCGATGGGTTCTAACCTGTTGCCTAG [GGACACCCTAG_LTGcore_GA_RTGcore_CT] (site GGACACCCTAG) (LTG core: GA, RTG core: CT) | 0.0895 |
| GGGCGGACTTGGGTTCTAACCTGTTGCGGGA [GGGCGGACTCC_LTGcore_CT_RTGcore_TC] (site GGGCGGACTCC) (LTG core: CT, RTG core: TC) | 1.29 |
| GTCGCCCCTTGGGTTCTAACCTGTTGCTAAT [GTCGCCCCTTA_LTGcore_CT_RTGcore_AT] (site GTCGCCCCTTA) (LTG core: CT, RTG core: AT) | 0.474 |
| AGTCTTAATTGGGTTCTAACCTGTTGCCAAT [AGTCTTACTTG_LTGcore_AT_RTGcore_AT] (site AGTCTTACTTG) (LTG core: AT, RTG core: AT) | 0.0434 |
| ATGCTTTCTTGGGTTCTAACCTGTTGCCTAG [ATGCTTTCTAG_LTGcore_CT_RTGcore_CT] (site ATGCTTTCTAG) (LTG core: CT, RTG core: CT) | 0.384 |
| AGGCGGGCTTGGGTTCTAACCTGTTGCGGAC [AGGCGGGCTCC_LTGcore_CT_RTGcore_GT] (site AGGCGGGCTCC) (LTG core: CT, RTG core: GT) | 0.13 |
| GGTGCCCCTTGGGTTCTAACCTGTTGCCGGT [GGTGCCCCTCG_LTGcore_CT_RTGcore_AC] (site GGTGCCCCTCG) (LTG core: CT, RTG core: AC) | 0.0162 |
| AGGCCTCGCTGGGTTCTAACCTGTTGCCTGC [AGGCCTCCTAG_LTGcore_GC_RTGcore_GC] (site AGGCCTCCTAG) (LTG core: GC, RTG core: GC) | 0.137 |
